Data: patent US5159080A, “Indole compounds, a process for their preparation, and pharmaceutical compositions containing them” (Madaus AG, priority 1988, dated 1992)
Where two headings read alike, the source gives them in different places.

Tests used:
[1] = Change of heart frequency and average blood pressure in narcotized rats (maximum effect over 2 hours); assay type: in vivo; conditions: Rattus norvegicus, iv, maximum effect over 2 h, hemi-tartrate; for change in vivo at 5 mg/kg: 5 mg/kg i.v.; for change in vivo at 10 mg/kg: 10 mg/kg i.v.; for change in vivo at 20 mg/kg: 20 mg/kg i.v.; for change in vivo at 2 mg/kg: 2 mg/kg i.v.; for change in vivo at 1 mg/kg: 1 mg/kg i.v.
guinea pig left auricles = test: Isolated left auricles stimulated with 1 Hz, inotropic effect; conditions: Cavia porcellus, read-out: Maximum effect in % of initial value, LEFT AURICLE INTROPIC; for Emax at 2 µg/mL: 2.0 μg/ml; for Emax at 4 µg/mL: 4.0 μg/ml; for Emax at 10 µg/mL: 10.0 μg/ml; for Emax at 20 µg/mL: 20.0 μg/ml; for Emax at 0.5 µg/mL: 0.5 μg/ml
Protocol: (§1) The test process employed is described, inter alia, in: Staff of the Department of Pharmacology, University of Edinburgh (1970): Pharmacological Experiments on Isolated Preparation, Churchill Livingston, Edinburgh, London and New York, page 112.
(§2) Animals having a body weight of about 500 g, were used and were divided into groups of 4 animals each. The compounds to be tested were dissolved in tyrode solution/sodium chloride solution 50:50 v/v and the desired concentration adjusted in the bath liquid. The experiment was carried out in the known manner.

[2] = test system: guinea pig right auricles; test: Isolated, spontaneously beating right auricles, chronotropic effect; conditions: Cavia porcellus, read-out: Maximum effect in % of initial value, RIGHT AURICLE CHRONOTROPIC; for Emax at 2 µg/mL: 2.0 μg/ml; for Emax at 4 µg/mL: 4.0 μg/ml; for Emax at 10 µg/mL: 10.0 μg/ml; for Emax at 20 µg/mL: 20.0 μg/ml
Protocol: as §1, §2

[3] = read-out: CHANGE OF HEART FREQUENCY (%)
[4] = read-out: BLOOD PRESSURE CHANGE AVERAGE PRESSURE (%)

SMILES	change in vivo at 5 mg/kg [1, 3] [%]	change in vivo at 10 mg/kg [1, 3] [%]	Emax at 2 µg/mL (guinea pig left auricles) [%]	Emax at 4 µg/mL (guinea pig left auricles) [%]	Emax at 2 µg/mL [2] [%]	Emax at 4 µg/mL [2] [%]	Emax at 10 µg/mL [2] [%]	change in vivo at 10 mg/kg [1, 4] [%]	Emax at 10 µg/mL (guinea pig left auricles) [%]	Emax at 20 µg/mL (guinea pig left auricles) [%]	Emax at 20 µg/mL [2] [%]	change in vivo at 2 mg/kg [1, 4] [%]	change in vivo at 2 mg/kg [1, 3] [%]	change in vivo at 5 mg/kg [1, 4] [%]	other results
CN1CC[C@@H]2CC(=O)c3[nH]c4ccc(Br)cc4c3C[C@@H]2C1 (relative stereo) [SI-WG 399]	-6.6	-12.1	25	13	-43	-66	-83	–	–	–	–	–	–	–	inhibition at 0.5 µg/mL ([2]; 0.5 μg/ml): 22%
CC(=O)Nc1ccc2[nH]c3c(c2c1)C[C@@H]1CN(C)CC[C@@H]1CC3=O (relative stereo) [SI-WG 604]	–	–	–	–	–	–	-10.2	-10.7	9.8	8.2	-15.6	–	–	–	change in vivo at 20 mg/kg [1, 4]: -15.6%; Emax at 60 µg/mL (guinea pig left auricles; 60.0 μg/ml): 13.8%; Emax at 60 µg/mL ([2]; 60.0 μg/ml): -24.7%
CN1CC[C@@H]2CC(=O)c3[nH]c4ccc(F)cc4c3C[C@@H]2C1 (relative stereo) [SI-WG 419]	-12.1	-22.8	6	-7	-30	-42	-80	-26.7	-27	–	–	-10.6	-7.5	-21.4	Emax at 0.5 µg/mL (guinea pig left auricles): 6%; Emax at 0.5 µg/mL ([2]; 0.5 μg/ml): -18%
CCCN1CC[C@@H]2CC(=O)c3[nH]c4ccccc4c3C[C@@H]2C1 (relative stereo) [SI-WG 533]	-9.7	-17.9	11.1	18.1	-15.9	-26	-34.1	-22.7	17	–	–	–	–	-20.1	change in vivo at 20 mg/kg [1, 4]: -37.4%; change in vivo at 20 mg/kg [1, 3]: -19.8%
Cc1ccc2[nH]c3c(c2c1)C[C@@H]1CN(C)CC[C@@H]1CC3=O (relative stereo) [SI-WG 379]	-17.4	–	24	24	-35	-46	-81	-22	23	–	–	–	–	-19.2	Emax at 0.5 µg/mL (guinea pig left auricles): 8%; Emax at 0.5 µg/mL ([2]; 0.5 μg/ml): -14%
CN1CC[C@@H]2CC(=O)c3c(c4ccccc4n3C)C[C@@H]2C1 (relative stereo) [SI-WG 591]	–	–	11.8	12	-20	-31.9	-43.9	–	27.4	–	–	–	–	–	–
CN1CC=C2CC(=O)c3[nH]c4ccccc4c3CC2C1 (stereo not shown) [SI-WG 360, 1,3,5,7,12,12a-hexahydro-2-methyl-2H-pyrido [3',4':4,5]-cyclohept [1,2-b] indol-6-one]	-14.3	-22.2	17	–	-10	–	-29	-34.2	39	50	-41	-10.3	-10.7	-23	–
COc1ccc2[nH]c3c(c2c1)C[C@@H]1CN(C)CC[C@@H]1CC3=O (relative stereo) [SI-WG 449]	-12	-17	16	–	-19	–	-40	-22	23	20	-57	-16	–	-10	–
CN1CC[C@@H]2CC(=O)c3[nH]c4c(O)cccc4c3C[C@@H]2C1 (relative stereo) [SI-WG 625]	-8.4	–	–	-4.7	-13.8	-17.4	-26.3	–	-8.9	–	–	–	–	-9.4	–
COc1cc2[nH]c3c(c2c(OC)c1OC)C[C@@H]1CN(C)CC[C@@H]1CC3=O (relative stereo) [SI-WG 587]	–	-4.8	–	14.9	–	-10.4	-13.9	11.6	29.4	31.8	-19.8	–	–	12.2	–
CN1CC[C@@H]2CC(=O)c3[nH]c4cc5c(cc4c3C[C@@H]2C1)OCO5 (relative stereo) [SI-WG 562]	–	-6	-4.1	-6	-11.3	-15.7	-31.8	-12.4	-7.4	–	–	-3.4	–	-9.4	–
CC(C)c1ccc2[nH]c3c(c2c1)C[C@@H]1CN(C)CC[C@@H]1CC3=O (relative stereo) [SI-WG 454]	-20.3	–	-7.9	–	-26.4	–	-65.1	–	-11.4	-33.3	-72.7	-6.8	-9	-7.4	change in vivo at 1 mg/kg [1, 4]: -4.8%; change in vivo at 1 mg/kg [1, 3]: -7.6%
CN1CC[C@@H]2CC(=O)c3[nH]c4ccc(C#N)cc4c3C[C@@H]2C1 (relative stereo) [SI-WG 600]	-8.9	-9.4	12.4	23	-25.2	-32.7	-49.1	4.8	30	–	–	9.5	–	-6	–
CN1CC[C@@H]2CC(=O)c3[nH]c4ccc(C(C)(C)C)cc4c3C[C@@H]2C1 (relative stereo) [SI-WG 578]	-10.2	–	-3.6	-12.1	-19.4	-28.1	-52.9	–	-10.9	–	–	–	-6.2	2	–
O=C1C[C@H]2CCNC[C@H]2Cc2c1[nH]c1ccccc21 (relative stereo) [SI-WG 422]	–	-12.8	-12.2	-14.9	-19.3	-36.1	–	–	–	–	–	–	–	–	change in vivo at 20 mg/kg [1, 4]: 21.8%; change in vivo at 20 mg/kg [1, 3]: -15.5%; Emax at 0.5 µg/mL (guinea pig left auricles): -4.2%; Emax at 0.5 µg/mL ([2]; 0.5 μg/ml): -6.7%
CN1CC[C@@H]2CC(=O)c3[nH]c4ccc(O)cc4c3C[C@@H]2C1 (relative stereo) [SI-WG 571, 1.3.4.4a,5,7,12, 12a-octahydro-10-hydroxy-2-methyl-2H-pyrido[3',4':4,5] cyclohept [1,2-b] indol-6-one]	–	-11.6	–	-3.9	-3.1	-8.4	-9.1	-14.1	-11.4	–	–	–	-1.4	–	–
